Each molecule was assayed on Fcγ receptor signaling (assay: Reverse Passive Arthus model). Details: Rattus norvegicus, single dose 10 mg/kg.
Assay type: in vivo
Description: Acute in vivo measurement of Fcγ receptor signaling inhibition of the compounds is measured using the:
Reverse Passive Arthus Model
On day 0 OVA was made up at a concentration of 17 mg/mL, in PBS by rocking gently until a solution was formed. 2% Evans Blue solution (Sigma Aldrich, cat# E2129) was then added to double the volume for a final concentration of 8.5 mg/mL of OVA and 1% Evans Blue dye. Anti-OVA antibody (Abazyme), stock concentration 10 mg/mL, was thawed and a 4 mg/mL solution was made with PBS. Compounds were made up in 0.5% HPMC with 0.02% Tween 80, and vortexed for about 15 seconds followed by homogenization for a minimum of about 2 min at 28,000 RPM until there was a fine particulate suspension with no clumps of compound. Rats were weighed and dosed with compound at a pre-determined time based on compound Tmax determined in pharmacokinetic studies. Animals were then placed under general anesthesia with a 5% isoflourane and oxygen mixture and shaved. Using a 0.5 cc insulin syringe two sites were injected i.d., 1 site with 100 μL of 4.0 mg/mL of anti-OVA antibody, and 1 site with 100 μL of sterile PBS. Each injection site was circled with a permanent marker to mark the site. Immediately following i.d. injections, animals were injected with 200 μL of the OVA (10 mg/kg)/1% Evans Blue mixture, i.v., using a 0.5 cc insulin syringe. About 4 h post injection animals were euthanized, bled via cardiac puncture and blood was put into plasma separation tubes. Blood samples were stored on ice until centrifugation (within about 2 h of collection). Each injection site was removed with a disposable biopsy punch (Acuderm Acu-Punch Disposable 12 mm), cut into four pieces and placed in a pre-labeled 2 mL eppendorf tube. One mL of DMF (99%) was added to each biopsy tube and they were placed in a heat block at about 50° C. for about 24 h. After incubation, 100 μL of each sample was transferred to a 96 well flat bottom plate and read at 620 nm on a plate reader using the Softmax software. Background was removed by subtracting the OD from the PBS injected site from the OD of the anti-OVA injected site for each individual animal. Plasma samples were spun down in a microcentrifuge (Eppendorf 5415R) for about 5 min at 16.1 rcf. 200 μL of plasma was placed in a 1.7 mL eppendorf tube for drug level measurements and tubes were stored at about −80° C. until evaluation.
For `CC1(C)C(=O)Nc2cc(Nc3nc(NCC(F)F)c4occc4n3)ccc21` [Example #16, 6-(4-(2,2-Difluoroethylamino)furo[3,2-d]pyrimidin-2-ylamino)-3,3-dimethylindolin-2-one], the inhibition in vivo at 10 mg/kg was 63%. `CC1(CN)CCN(c2nc(Nc3ccc4c(c3)NC(=O)C4(C)C)nc3ccoc23)CC1` [C.1.32] showed an inhibition in vivo at 10 mg/kg of 8%. Molecule `CNCC1CCN(c2nc(Nc3ccc(N4CCN(C(C)=O)CC4)cc3)nc3ccoc23)CC1` [C.1.2] has an inhibition in vivo at 10 mg/kg of -17%. Molecule `CC1(C)Oc2ccc(Nc3nc(N4CCC(CNCCS(C)(=O)=O)CC4)c4occc4n3)cc2NC1=O` [B.5.65] has an inhibition in vivo at 10 mg/kg of 9%. With `CC1(CN)CCN(c2nc(Nc3ccc4c(c3)NC(=O)C(C)(C)O4)nc3ccoc23)CC1` [C.1.33] the inhibition in vivo at 10 mg/kg was 30%. `O=c1ccc2ccc(Nc3nc(NC4CC4)c4occc4n3)cc2o1` [B.5.52] was tested, and the inhibition in vivo at 10 mg/kg was 0%. `CC1Cc2ccc(Nc3nc(NC4CC4)c4occc4n3)cc2NC1=O` (centres unmarked) [Example #6, 7-(4-(Cyclopropylamino)furo[3,2-d]pyrimidin-2-ylamino)-3-methyl-3,4-dihydroquinolin-2(1H)-one] was tested, and the inhibition in vivo at 10 mg/kg was 59%. In the case of `O=C1CCc2ccc(Nc3nc(NC4CC4)c4occc4n3)cc2N1` [Example #7, 7-(4-(Cyclopropylamino)furo[3,2-d]pyrimidin-2-ylamino)-3,4-dihydroquinolin-2(1H)-one], the inhibition in vivo at 10 mg/kg was 73%. With `Clc1cc(Nc2nc(N3CCC4(CCNC4)CC3)c3occc3n2)ccc1N1CCOCC1` [C.1.44] the inhibition in vivo at 10 mg/kg was 54%. `CNCC1CCN(c2nc(Nc3ccc4c(c3)NC(=O)C4(C)C)nc3ccoc23)CC1` [C.1.51] showed an inhibition in vivo at 10 mg/kg of -7%. `CC(=O)N(C)c1ccc(Nc2nc(N3CCC(CN)CC3)c3occc3n2)cc1` [C.1.7] showed an inhibition in vivo at 10 mg/kg of 22%. Molecule `CNCC1CCN(c2nc(Nc3ccc4c(c3)NC(=O)C(C)(C)S4)nc3ccoc23)CC1` [C.1.71] has an inhibition in vivo at 10 mg/kg of 85%. With `Cn1ncc2cc(Nc3nc(N4CCC5(CCNC5)CC4)c4occc4n3)ccc21` [C.1.40] the inhibition in vivo at 10 mg/kg was 40%. `CC1(C)Oc2ccc(Nc3nc(N4CCC(O)(CN)CC4)c4occc4n3)cc2NC1=O` [Example #AM.1.1] was tested, and the inhibition in vivo at 10 mg/kg was 12%. Work on `CNCC1CCN(c2nc(Nc3ccc4c(C)n[nH]c4c3)nc3ccoc23)CC1` [C.1.48] yielded an inhibition in vivo at 10 mg/kg of 1%. `CC1(C)C(=O)Nc2cc(Nc3nc(N4CCC5(CCCNC5)CC4)c4occc4n3)ccc21` [C.1.37] was tested, and the inhibition in vivo at 10 mg/kg was -5%. Molecule `CC1(C)Oc2ccc(Nc3nc(Nc4ccc5c(c4)NC(=O)C(C)(C)O5)c4occc4n3)cc2NC1=O` [B.5.62] has an inhibition in vivo at 10 mg/kg of 16%. `FC(F)(F)CNc1nc(Nc2ccc(N3CCOCC3)c(Cl)c2)nc2ccoc12` [B.5.13] was tested, and the inhibition in vivo at 10 mg/kg was 17%. In the case of `Cc1n[nH]c2cc(Nc3nc(N4CCC(O)(CN)CC4)c4occc4n3)ccc12` [Example #AM.1, 4-(Aminomethyl)-1-(2-(3-methyl-1H-indazol-6-ylamino)furo[3,2-d]pyrimidin-yl)piperidin-4-ol], the inhibition in vivo at 10 mg/kg was 3%. Molecule `CC1(C)C(=O)Nc2cc(Nc3nc(N4CCC(CNCCF)CC4)c4occc4n3)ccc21` [B.5.77] has an inhibition in vivo at 10 mg/kg of 20%. Work on `Cc1n[nH]c2cc(Nc3nc(N[C@@H]4[C@H](C(N)=O)[C@H]5C=C[C@@H]4C5)c4occc4n3)ccc12` [C.1.52] yielded an inhibition in vivo at 10 mg/kg of 8%. `O=C1CCCc2cc(Nc3nc(NC4CC4)c4occc4n3)ccc2N1` [B.5.56] gave an inhibition in vivo at 10 mg/kg of 49%. `COc1cc(Nc2nc(N3CCC4(CCCNC4)CC3)c3occc3n2)ccc1N1CCOCC1` [C.1.39] was tested, and the inhibition in vivo at 10 mg/kg was 44%. `CNCC1CCN(c2nc(Nc3ccc4cn[nH]c4c3)nc3ccoc23)CC1` [C.1.23] showed an inhibition in vivo at 10 mg/kg of -15%. Work on `O=c1[nH]c2cc(Nc3nc(NC4CC4)c4occc4n3)ccc2cc1CO` [B.5.50] yielded an inhibition in vivo at 10 mg/kg of 0%. Work on `CC1(C)C(=O)Nc2cc(Nc3nc(NC4CCC4)c4occc4n3)ccc21` [B.5.108] yielded an inhibition in vivo at 10 mg/kg of 56%. In the case of `CN(C)C(=O)c1n[nH]c2cc(Nc3nc(NC4CC4)c4occc4n3)ccc12` [J.1, 6-(4-(Cyclopropylamino)furo[3,2-d]pyrimidin-2-ylamino)-N,N-dimethyl-1H-indazole-3-carboxamide], the inhibition in vivo at 10 mg/kg was -2%. `FC(F)CNCC1CCN(c2nc(Nc3ccc(N4CCOCC4)c(Cl)c3)nc3ccoc23)CC1` [B.5.85] was tested, and the inhibition in vivo at 10 mg/kg was 52%. `CC1(C)Oc2ccc(Nc3nc(N4CCC5(CCCNC5)C4)c4occc4n3)cc2NC1=O` (centres unmarked) [C.1.36] showed an inhibition in vivo at 10 mg/kg of -31%. `c1cc2nc(Nc3ccc4cn[nH]c4c3)nc(NC3CC3)c2o1` [Example #15, N^4-Cyclopropyl-N^2-(1H-indazol-6-yl)furo[3,2-d]pyrimidine-2,4-diamine] was tested, and the inhibition in vivo at 10 mg/kg was 45%. Molecule `CCCNc1nc(Nc2ccc3c(c2)NC(=O)C3(C)C)nc2ccoc12` [B.5.81] has an inhibition in vivo at 10 mg/kg of 16%. With `CC1(C)C(=O)Nc2cc(Nc3nc(N[C@@H]4[C@H](C(N)=O)[C@H]5C=C[C@@H]4C5)c4occc4n3)ccc21` [B.5.61] the inhibition in vivo at 10 mg/kg was 1%. `O=C1Nc2cc(Nc3nc(NC4CC4)c4occc4n3)ccc2OC1(F)F` [B.5.40] was tested, and the inhibition in vivo at 10 mg/kg was 3%. `Cc1n[nH]c2cc(Nc3nc(N4CCC(CNCCS(C)(=O)=O)CC4)c4occc4n3)ccc12` [C.1.60] was tested, and the inhibition in vivo at 10 mg/kg was 24%. For `c1cc(-c2n[nH]c3cc(Nc4nc(NC5CC5)c5occc5n4)ccc23)ccn1` [J.1.7], the inhibition in vivo at 10 mg/kg was 12%. Molecule `Cc1n[nH]c2cc(Nc3nc(N4CCC(C)(CN)CC4)c4occc4n3)ccc12` [C.1.31] has an inhibition in vivo at 10 mg/kg of 0%. Molecule `CC1(C)Oc2ccc(Nc3nc(N4CC[C@@H](CN)[C@H](O)C4)c4occc4n3)cc2NC1=O` [Example #AM.1.2] has an inhibition in vivo at 10 mg/kg of -16%. In the case of `N#Cc1n[nH]c2cc(Nc3nc(NC4CC4)c4occc4n3)ccc12` [J.1.8], the inhibition in vivo at 10 mg/kg was 9%. Molecule `Cc1n[nH]c2cc(Nc3nc(N4CCC5(CC4)CNCCO5)c4occc4n3)ccc12` [Q.1.4] has an inhibition in vivo at 10 mg/kg of 33%. Work on `Cn1ncc2cc(Nc3nc(N4CCC5(CCCNC5)CC4)c4occc4n3)ccc21` [C.1.43] yielded an inhibition in vivo at 10 mg/kg of 56%. For `CNCC1CCN(c2nc(Nc3ccc(C(C)(C)C#N)cc3)nc3ccoc23)CC1` [C.1.57], the inhibition in vivo at 10 mg/kg was 12%. Molecule `O=C1COc2ccc(Nc3nc(N4CCC(CNCC(F)F)CC4)c4occc4n3)cc2N1` [B.5.84] has an inhibition in vivo at 10 mg/kg of 38%. Molecule `CC(N)C1CCN(c2nc(Nc3ccc4c(c3)NC(=O)C(C)(C)O4)nc3ccoc23)CC1` (centres unmarked) [C.1.62] has an inhibition in vivo at 10 mg/kg of -6%. `CNCC1CCN(c2nc(Nc3ccc4c(cnn4C)c3)nc3ccoc23)CC1` [C.1.49] was tested, and the inhibition in vivo at 10 mg/kg was -20%. In the case of `CC1(C)Oc2ccc(Nc3nc(N4CCC5(CCNC5)CC4)c4occc4n3)cc2NC1=O` [C.1.58], the inhibition in vivo at 10 mg/kg was -18%. In the case of `Cc1cc(Nc2nc(NC3CC3)c3occc3n2)cc2[nH]ncc12` [Example #AC.1, N^4-cyclopropyl-N^2-(4-methyl-1H-indazol-6-yl)furo[3,2-d]pyrimidine-2,4-diamine], the inhibition in vivo at 10 mg/kg was 43%. Molecule `CC1(C)C(=O)Nc2cc(Nc3nc(NC4CC4)c4occc4n3)ccc21` [Example #11, 6-(4-(Cyclopropylamino)furo[3,2-d]pyrimidin-2-ylamino)-3,3-dimethylindolin-2-one] has an inhibition in vivo at 10 mg/kg of 65%. With `CC1(C)C(=O)Nc2cc(Nc3nc(N4CCC(CNCC(F)F)CC4)c4occc4n3)ccc21` [B.5.60] the inhibition in vivo at 10 mg/kg was 10%. In the case of `Cc1n[nH]c2cc(Nc3nc(N4CCCC(N)CC4)c4occc4n3)ccc12` (centres unmarked) [C.1.29], the inhibition in vivo at 10 mg/kg was -5%. With `Cc1cc2ccc(Nc3nc(NC4CC4)c4occc4n3)cc2[nH]c1=O` [B.5.99] the inhibition in vivo at 10 mg/kg was 16%. Work on `CC1(C)Oc2ccc(Nc3nc(N4CCC5(CCCNC5)CC4)c4occc4n3)cc2NC1=O` [C.1.59] yielded an inhibition in vivo at 10 mg/kg of 20%. `NCC1CCN(c2nc(Nc3ccc4c(c3)NC(=O)CC4)nc3ccoc23)CC1` [C.1.61] gave an inhibition in vivo at 10 mg/kg of 20%. `Cc1n[nH]c2cc(Nc3nc(NC4CC4)c4occc4n3)ccc12` [Example #3, N^4-Cyclopropyl-N^2-(3-methyl-1H-indazol-6-yl)furo[3,2-d]pyrimidine-2,4-diamine] gave an inhibition in vivo at 10 mg/kg of 75%. `CC(C)(C#N)c1ccc(Nc2nc(NC3CC3)c3occc3n2)cc1` [B.5.42] was tested, and the inhibition in vivo at 10 mg/kg was 27%. `CC1(CN)CCN(c2nc(Nc3ccc4cn[nH]c4c3)nc3ccoc23)CC1` [Example #12, 4-(4-(Aminomethyl)-4-methylpiperidin-1-yl)-N-(1H-indazol-6-yl)furo[3,2-d]pyrimidin-2-amine] showed an inhibition in vivo at 10 mg/kg of 8%. In the case of `CC(C)CNc1nc(Nc2ccc3c(c2)NC(=O)C3(C)C)nc2ccoc12` [B.5.80], the inhibition in vivo at 10 mg/kg was 46%. `CCCC(=O)Nc1ccc(Nc2nc(N3CCC(CN)CC3)c3occc3n2)cc1` [C.1.8] showed an inhibition in vivo at 10 mg/kg of 0%. For `Clc1cc(Nc2nc(NC3CCC3)c3occc3n2)ccc1N1CCOCC1` [B.5.2], the inhibition in vivo at 10 mg/kg was 55%. With `CC1(C)C(=O)Nc2cc(Nc3nc(N4CCC(CNCCS(C)(=O)=O)CC4)c4occc4n3)ccc21` [B.5.68] the inhibition in vivo at 10 mg/kg was 1%.

From patent US8551981B2, “Furo[3,2-d]pyrimidine compounds” (AbbVie Inc., priority 2010, dated 2013)
